Measurements from patent US6103709A (priority 1998, dated 2000).
Entries after “also recorded” stand apart in the source; their conditions may differ.

Assays:
[1] = target: T1, nuclear receptor for 1α,25(OH)2 D3 [VDRnuc] (Gallus gallus, UniProt O42392); test: Relative Competitive Index (steroid competition) assay, nuclear receptor VDRnuc; format: binding, chick; set-up: key to Nuclear 1α,25-D Receptor (RCI): % relative to 1α,25(OH)2D3 binding (RCI = 100%); conditions: for Binding to VDRnuc relative to 1α,25(OH)2 D3 (RCI): 1α,25(OH)2 D3 = 100%, FIG. 8: chick intestine mucosa; for Nuclear 1α,25-D Receptor (RCI): RCI of 1α,25(OH)2 D3 = 100
T1 construct: VDRnuc receptor preparation from chick intestine mucosa; from tissue; host or cells: chick intestinal mucosa
T1 sequence (O42392 1-451): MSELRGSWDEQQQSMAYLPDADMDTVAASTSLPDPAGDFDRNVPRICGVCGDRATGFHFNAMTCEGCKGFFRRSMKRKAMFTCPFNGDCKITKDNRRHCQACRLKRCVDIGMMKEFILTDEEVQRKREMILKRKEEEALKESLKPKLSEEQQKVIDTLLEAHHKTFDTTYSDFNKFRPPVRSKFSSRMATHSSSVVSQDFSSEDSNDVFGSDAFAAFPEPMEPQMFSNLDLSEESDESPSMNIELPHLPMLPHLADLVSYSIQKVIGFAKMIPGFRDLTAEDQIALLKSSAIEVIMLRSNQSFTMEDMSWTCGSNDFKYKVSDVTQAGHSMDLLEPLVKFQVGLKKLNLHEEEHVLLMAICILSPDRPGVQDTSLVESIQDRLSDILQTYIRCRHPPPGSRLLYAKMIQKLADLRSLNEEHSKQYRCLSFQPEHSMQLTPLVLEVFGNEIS
Experimental: The ability of analogs to mediate genomic responses are directly determined by the ability of the analog in question to bind to the nuclear receptor for 1α,25(OH)2 D3 [VDRnuc ]. This ability is detected by the assay measuring Relative Competitive Index (RCI).
The assay is based upon the principles of a steroid competition assay. A fixed amount of [^3 H]1α,25(OH)2 D3 is mixed with increasing amounts of competitive analogs or the natural hormone, 1α,25(OH)2 D3, and incubated with a VDRnuc receptor preparation from chick intestine mucosa.
Ligand Receptor Competition Assay
This example describes a ligand receptor competitive assay used for determination of an analog's relative ability to bind to VDRnuc expressed as relative competitive index (RCI).
The relative affinity of nonradioactive 1α,25(OH)2 D3 and each analog to compete with [^3 H]1α,25(OH)2 D3 for binding to the VDRnuc of NB4 cells was carried out in vitro. The NB4 cells were collected from a fast growing stage and the cellular VDRnuc of 1α,25(OH)2 D3 were extracted from KTED buffer containing 10 mM Tris-HCl, pH 7.4, 300 mM KCl, 1 mM EDTA and 5 mM DTT. After sonication, the cell extract was further centrifuged at 500× g for 10 min. The supernatant was collected for use in a ligand-receptor binding assay.
In this assay, increasing concentrations (10^-10 to 10^-6 M) of nonradioactive 1α,25(OH)2 D3 or the tested analogs were incubated with NB4 cell extracts in the presence of a fixed saturating amount of 1 pmole of [^3 H]1α,25(OH)2 D3. The reciprocal of the percentage of maximal binding of [^3 H]1α,25(OH)2 D3 was then calculated and plotted as a function of the relative analog concentration versus [^3 H]1α,25(OH)2 D3. […] The competitive index value for each analog is then normalized to the competitive index value of the […], thereby generating the value of Relative Competitive Index (RCI) where the RCI for 1α,25(OH)2 D3 is defined as 100%.
The full description of the assay is found in Methods in Enzymology: Vitamins and Co-Enzymes, Vol. 67, 494-500 , Academic Press, NY(1980); Biochem. Biophys. Res. Commun., 91: 827-834 (1979); and Endocrinology, 139(2): 457-465 (1998).

[2] = system: intestinal Ca2+ transport in perfused chick duodena (transcaltachia); test: Transcaltachia assay (rapid stimulation of 45Ca2+ transport in perfused duodena); conditions: for Rapid Trans-Caltachia, relative to 1α,25(OH)2 D3: 1α,25(OH)2 D3 = 100; for stimulation of transcaltachia (in words, FIG. 11): perfusion with 300 pM or 650 pM analog, reference 650 pM 1α,25(OH)2 D3, within first four minutes
Experimental: Duodenal loops from normal, vitamin D-replete chicks were lumenally perfused with ^45 Ca^2+ (5 uCi/ml of buffer). To establish basal transport rates, celiac artery of controls were perfused with control medium for the first 20 min. The duodena were then either re-exposed to control medium containing the vehicle ethanol (0.005%, final concentration) through the celiac artery, or vascularly perfused with 300 pM or 650 pM agonist analogs JM or JN or with 650 pM of a control reference compound 1α,25(OH)2 D3. The venous effluent was collected at 2 min intervals for liquid scintillation spectrophotometry of the ^45 Ca^2+. […] Values represent mean ±SEM for n=4 in each group.
The data shown in FIG. 13 are the mean ±SEM from 4-5 duodena. […] Open circles represent the negative control receiving no treatment with 1α,25(OH)2 D3 or analog. […] Data represent the ratio of treated to basal values ±SEM extracted from a time-course plot (as in panel A) at 32 minutes.
This example describes the assay used for testing rapid response transcaltachia described in J. Biol. Chem, 268: 13811-13819 (1993).
White Leghorn cockerels (Hyline International, Lakeview, Calif.) were obtained on the day of hatch and maintained on a vitamin D-supplemented diet (1.0% calcium and 1.0% phosphorus; O. H. Kruse Grain and Milling, Ontario, Calif.) for 5-6 weeks to prepare normal vitamin D3 -replete chicks for use in the transcaltachia studies.
Measurements of ^45 Ca^2+ transport were carried out in perfused chick duodena. Normal vitamin D-replete chicks weighing approximately 500 g were anesthetized with 0.3 ml per 100 g Chloropent (Fort Dodge, Iowa), and the duodenal loop was surgically exposed. The celiac vein and blood vessels branching off from the celiac artery were ligated before cannulation of the celiac artery itself, and vascular perfusion was immediately initiated. Both the celiac artery and vein of the duodena were perfused with modified Grey's balanced salt solution (GBSS) +0.9 mM Ca which was oxygenated with 95% O2 and 5% CO2. A basal transport rate was established by perfusion with control medium for 20 minutes after the intestinal lumen was filled with ^45 Ca^2+. The tissue was then exposed to 1α,25(OH)2 D3 or analogs or reexposed to control medium for an additional 40 minutes. The vascular perfusate was collected at 2 min intervals during the last 10 min of the basal and during the entire treatment period. Duplicate 100 μl aliquots were taken for determination of the ^45 Ca^2+ levels by liquid scintillation spectrometry.

SMILES	Binding to VDRnuc relative to 1α,25(OH)2 D3 (RCI) [1] [%]	Nuclear 1α,25-D Receptor (RCI) [1]	also measured
C=C1/C(=C\C=C2/CCC[C@]3(C)[C@@H]([C@H](C)CCCC(C)(C)O)CC[C@@H]23)C[C@@H](O)C[C@H]1O [HL]	–	–	transcaltachia caused by 1α,25(OH)2 D3 in presence of HL ([2]; HL 12 pM in combination with 1α,25(OH)2 D3 300 pM): particularly observable; inhibition of 1α,25(OH)2 D3-stimulated transcaltachia ([2]; HL 60 pM in advance of 300 pM 1α,25(OH)2 D3): clear inhibition of transcaltachia; inhibition of 1α,25(OH)2 D3-stimulated transcaltachia ([2]; HL 400 pM, 1α,25(OH)2 D3 300 pM): clearly inhibited; inhibition of 1α,25(OH)2 D3-stimulated transcaltachia ([2]; HL administered before 1α,25(OH)2 D3 / FIG. 13 overall): almost completely inhibited; also recorded: potent ability of 1β,25(OH)2 D3 (HL) to block or antagonize
C[C@H](CCCC(C)(C)O)[C@H]1CC[C@H]2C3=CC=C4C[C@@H](O)C[C@H](O)[C@@]4(C)[C@@H]3CC[C@]12C [JN]	–	1.8	Rapid Trans-Caltachia, relative to 1α,25(OH)2 D3 [2]: 105%; stimulation of transcaltachia (in words, FIG. 11) [2]: comparable or better than the reference compound
C[C@H](CCCC(C)(C)O)[C@H]1CC[C@H]2C3=CC=C4C[C@@H](O)C[C@H](O)[C@@]4(C)[C@H]3CC[C@]12C [JO]	–	0.2	Rapid Trans-Caltachia, relative to 1α,25(OH)2 D3 [2]: 50%
C[C@H](CCCC(C)(C)O)[C@H]1CC[C@H]2C3=CC=C4C[C@@H](O)C[C@H](O)[C@]4(C)[C@@H]3CC[C@]12C [JP]	–	0.3	Rapid Trans-Caltachia, relative to 1α,25(OH)2 D3 [2]: 60%
CC1=C(/C=C\C2=CCC[C@@]3(C)[C@@H]2CC[C@@H]3[C@H](C)CCCC(C)(C)O)C[C@@H](O)C[C@@H]1O [GF]	–	2	–
C[C@H](CCCC(C)(C)O)[C@H]1CC[C@H]2C3=CC=C4C[C@@H](O)C[C@H](O)[C@]4(C)[C@H]3CC[C@]12C [JM]	–	0.1	Rapid Trans-Caltachia, relative to 1α,25(OH)2 D3 [2]: 60%; stimulation of transcaltachia (in words, FIG. 11) [2]: comparable or better than the reference compound
CC1=C(C=C=C2CCC[C@]3(C)[C@@H]([C@H](C)CCCC(C)(C)O)CC[C@@H]23)C[C@@H](O)C[C@@H]1O [JW]	–	2.6	–
CC1=C(C=C=C2CCC[C@]3(C)[C@@H]([C@H](C)CCCC(C)(C)O)CC[C@@H]23)C[C@@H](O)C[C@@H]1O [JV]	–	1.6	–

Now from value to compound, other results behind:

Binding to VDRnuc relative to 1α,25(OH)2 D3 (RCI) [1] [%]	Nuclear 1α,25-D Receptor (RCI) [1]	SMILES	also measured
5	5	C=C1/C(=C\C=C2/CCC[C@]3(C)[C@@H]([C@H](C)Cc4ccc(O)cc4)CC[C@@H]23)C[C@@H](O)C[C@@H]1O [DF]	–
29	29	C=C1/C(=C\C=C2/CCC[C@]3(C)[C@@H]([C@H](C)Cc4cccc(O)c4)CC[C@@H]23)C[C@@H](O)C[C@@H]1O [DE]	–
–	0.002	C=C1CC[C@H](O)C/C1=C/C=C1\CCC[C@]2(C)[C@@H]([C@H](C)Cc3ccc(O)cc3)CC[C@@H]12 [JX]	–
–	21	C=C1/C(=C\C=C2/CCC[C@]3(C)[C@@H]([C@H](C)C=C=CC(C)(C)O)CC[C@@H]23)C[C@@H](O)C[C@@H]1O [HQ]	–
–	0.001	C=C1CC[C@H](O)C/C1=C/C=C1\CCC[C@]2(C)[C@@H]([C@H](C)Cc3cccc(O)c3)CC[C@@H]12 [JY]	–
52	52	C=C1/C(=C\C=C2/CCC[C@]3(C)[C@@H]([C@H](C)C=C=CC(C)(C)O)CC[C@@H]23)C[C@@H](O)C[C@@H]1O [HR]	–
98	98	C=C1/C(=C\C=C2/CCC[C@]3(C)[C@@H]([C@H](C)CCCC(C)(C)O)C[C@@H]4C[C@@]243)C[C@@H](O)C[C@@H]1O [LO]	VDRnuc binding / nuclear response (in words) ([1]; compared with 1α,25(OH)2 D3): as active in generating nuclear responses as is the 1α,25(OH)2 D3
62	62	C=C1/C(=C\C=C2/CCC[C@]3(C)[C@@H]([C@H](C)Cc4cccc(C(C)(C)O)c4)CC[C@@H]23)C[C@@H](O)C[C@@H]1O [EV]	–
